According to US8648059B2, “Use of epicatechin and derivatives and salts thereof for cardiac protection of ischemic myocardium and to ameliorate adverse cardiac remodeling” (The Regents of the University of California, priority 2008, dated 2014):

Columns and labels:
Assay type in all cases: in vivo, rat
Sprague Dawley rats = test: IR (30 minutes ischemia) infarct size, single IV therapy 15 min before reperfusion
Protocol: Lateral thoracotamy with 30 minutes ischemia>reperfusion was performed a treated per the groups above 15 min before reperfusion IV in the femoral artery. Animals were humanely sacrificed and the hearts were then section and stained to examine tissue injury.

Sprague-Dawley rats [1] = test: Ischemia-reperfusion (45 min coronary ligation) infarct size, oral epicatechin pre-treatment (Example 1); conditions: for infarct area: epicatechin 1 mg/kg/day oral
Protocol: (§1) Adult male Sprague-Dawley rats (Harlan, Indianapolis, Ind.) weighing ˜250 g were used. Epicatechin (1 mg/kg/day; Sigma-Aldrich, St. Louis, Mo.) or vehicle (water) was administered orally by gavage once/day beginning 10 days before thoracotomy and continuing until the time of the terminal study (48 h or 3 weeks). A subgroup of “normal” animals were treated with water or epicatechin for 10 day and were used to evaluate the effects of epicatechin on hemodynamics. For 48 hr studies the groups included IR and IR+10 day epicatechin. For 3 week studies, the groups included sham, sham+10 day epicatechin, IR and IR+10 day epicatechin.
Ischemia-reperfusion: Animals were anesthetized by intraperitoneal injection of ketamine (100 mg/kg) and xylazine (10 mg/kg), intubated, and positive-pressure ventilated. Following a left thoracotomy, the left anterior descending coronary artery was ligated for 45 min, (except in shams) released and the suture left in place. The chest was closed and animals allowed to fully recover. Successful occlusion and reperfusion were verified by visual inspection of left ventricle (LV) color. Sham animals were treated identically, except the ligature was not tightened.
Determination of Infarct Size: Terminal study hearts were excised and weighed. In 48 h hearts, the area at risk was determined by the reocclusion of the snare and infusion of trypan blue (0.4%) into the cannulated aorta. Hearts were sectioned at 0 mmHg into five 2 mm rings and stained using triphenyltetrazolium chloride to determine the infarct area. Computer assisted image analysis was used using blinded operators. For 3 week studies hearts were processed as above and sectioned to identify the infarct (i.e. scar) area. The images of unfixed, stained rings were also used to measure internal and external chamber diameters, anterior and septal wall thicknesses.
Statistical Analysis Comparisons between means±S.E.M were analyzed by student's t-tests or one-way ANOVA followed by Bonferroni post-hoc. P<0.05 was considered statistically significant. The investigator who analyzed the data was blinded to what group (control vs. treatment with epicatechin) the animal belonged to.

Sprague-Dawley rats [2] = test: Hemodynamics in normal, sham and IR rats (Example 1)
Protocol: as §1
(§2) Hemodynamics: All animals were weighed and anesthetized with 5% isoflurane (maintenance at 1-2%). Arterial (carotid) and LV pressures were measured using a micromanometer just prior to sacrifice and data digitally recorded.
Hemodynamics: Hemodynamics (Table 1A) were measured in normal and normal+10 d epicatechin. […] Values shown are mean ±SEM. Statistical analysis was done by ANOVA except where denoted. In the IR group the rats are fed the control and ischemia is induced (by temporary occlusion of the coronary artery). In the IR+epicatechin the rats are given epicatechin and ischemia is induced. […] The purpose of these two groups was to determine baseline hemodynamics.

Sprague-Dawley rats [3] = test: Cardiac morphometry 3 weeks after IR (Example 1); conditions: epicatechin
Protocol: Adult male Sprague-Dawley rats (Harlan, Indianapolis, Ind.) weighing ˜250 g were used. […] Sigma-Aldrich, St. Louis, Mo.) or vehicle (water) was administered orally by gavage once/day beginning 10 days before thoracotomy and continuing until the time of the terminal study (48 h or 3 weeks). A subgroup of “normal” animals were treated with water or epicatechin for 10 day and were used to evaluate the effects of epicatechin on hemodynamics. […] Determination of Infarct Size: Terminal study hearts were excised and weighed. In 48 h hearts, the area at risk was determined by the reocclusion of the snare and infusion of trypan blue (0.4%) into the cannulated aorta. […] Computer assisted image analysis was used using blinded operators. For 3 week studies hearts were processed as above and sectioned to identify the infarct (i.e. scar) area. The images of unfixed, stained rings were also used to measure internal and external chamber diameters, anterior and septal wall thicknesses.

Sprague-Dawley rats [4] = test: Permanent coronary occlusion infarct size (Example 2); conditions: epicatechin 1 mg/kg/day oral
Protocol: Determination of Infarct Size: Terminal study hearts were excised and weighed. In 48 h hearts, the area at risk was determined by the reocclusion of the snare and infusion of trypan blue (0.4%) into the cannulated aorta. […] Computer assisted image analysis was used using blinded operators. For 3 week studies hearts were processed as above and sectioned to identify the infarct (i.e. scar) area. The images of unfixed, stained rings were also used to measure internal and external chamber diameters, anterior and septal wall thicknesses. Adult male Sprague-Dawley rats (Harlan, Indianapolis, Ind.) weighing ˜250 g were used. […] Sigma-Aldrich, St. Louis, Mo.) or vehicle (water) was administered orally by gavage once/day beginning 10 days before thoracotomy and continuing until the time of the terminal study (48 h or 3 weeks). Thoracotomy was performed at day 10. In the sham group, the chest was only opened and closed; no artery was permanently occluded. […] At 48 hours the animals were anesthetized and hemodynamics recorded. The heart was excised and for infarcted animals only the infarct size and heart structure (morphometry) were determined. […] At 3 weeks the animals were anesthetized and hemodynamics recorded. The heart was excised and for infarcted animals only the infarct size and heart structure (morphometry) were determined.

Sprague-Dawley rats [5] = test: Hemodynamics after permanent coronary occlusion (Example 2); conditions: for LVEDP / LVPSP / MAP: epicatechin; for HR: epicatechin 1 mg/kg/day
Protocol: as §2
Adult male Sprague-Dawley rats (Harlan, Indianapolis, Ind.) weighing ˜250 g were used. Epicatechin (1 mg/kg/day; Sigma-Aldrich, St. Louis, Mo.) or vehicle (water) was administered orally by gavage once/day beginning 10 days before thoracotomy and continuing until the time of the terminal study (48 h or 3 weeks). Thoracotomy was performed at day 10. In the sham group, the chest was only opened and closed; no artery was permanently occluded. For the infarct group, the left anterior descending coronary artery was permanently occluded. In the 48 hour treatment arm, the animals were allowed to heal with treatment of epicatechin at 1 mg/kg/day continued for 48 hours. At 48 hours the animals were anesthetized and hemodynamics recorded. The heart was excised and for infarcted animals only the infarct size and heart structure (morphometry) were determined. In the 3 week treatment arm, the animals were allowed to heal for 3 weeks with daily treatment of epicatechin at 1 mg/kg/day. At 3 weeks the animals were anesthetized and hemodynamics recorded. The heart was excised and for infarcted animals only the infarct size and heart structure (morphometry) were determined.
Methods of determining infarct size, hemodynamics, tissue collection statistical analysis is as described in Example 1.

Sprague-Dawley rats [6] = test: Cardiac morphometry after permanent coronary occlusion (Example 2); conditions: epicatechin
Protocol: Determination of Infarct Size: Terminal study hearts were excised and weighed. In 48 h hearts, the area at risk was determined by the reocclusion of the snare and infusion of trypan blue (0.4%) into the cannulated aorta. […] Computer assisted image analysis was used using blinded operators. For 3 week studies hearts were processed as above and sectioned to identify the infarct (i.e. scar) area. The images of unfixed, stained rings were also used to measure internal and external chamber diameters, anterior and septal wall thicknesses. Adult male Sprague-Dawley rats (Harlan, Indianapolis, Ind.) weighing ˜250 g were used. […] Sigma-Aldrich, St. Louis, Mo.) or vehicle (water) was administered orally by gavage once/day beginning 10 days before thoracotomy and continuing until the time of the terminal study (48 h or 3 weeks). Thoracotomy was performed at day 10. In the sham group, the chest was only opened and closed; no artery was permanently occluded. For the infarct group, the left anterior descending coronary artery was permanently occluded. In the 48 hour treatment arm, the animals were allowed to heal with treatment of epicatechin at 1 mg/kg/day continued for 48 hours. At 48 hours the animals were anesthetized and hemodynamics recorded. The heart was excised and for infarcted animals only the infarct size and heart structure (morphometry) were determined. In the 3 week treatment arm, the animals were allowed to heal for 3 weeks with daily treatment of epicatechin at 1 mg/kg/day. At 3 weeks the animals were anesthetized and hemodynamics recorded. The heart was excised and for infarcted animals only the infarct size and heart structure (morphometry) were determined.

[7] = 48 h IR, 10 d epicatechin pretreatment

## C[C@H]1c2cccc(O)c2C(O)=C2C(=O)[C@]3(O)C(O)=C(C(N)=O)C(=O)[C@@H](N(C)C)[C@@H]3[C@@H](O)[C@@H]21 [DOX, doxycycline]
Sprague Dawley rats; at 4 hours, IV 5 mg/kg
  reduction of IR induced infarct size: ~10%

## Oc1cc(O)c2c(c1)O[C@H](c1ccc(O)c(O)c1)[C@H](O)C2 [epicatechin]
Sprague-Dawley rats [1]; 3 weeks after IR, control 50.4±5.6%, p=0.05
  infarct area: 33.7±5.5%
Sprague-Dawley rats [1]; 3 weeks post-IR
  reduction in scar size: ~33%
Sprague-Dawley rats [1]; 48 h after IR, 10 day pre-treatment, control 51.4±1.8%, P<0.0001
  infarct area: 26.3±3.4%
Sprague-Dawley rats [1]; temporary occlusion experiment, FIG. 1, vs vehicle
  reduction in infarct size: ~50%
Sprague-Dawley rats [2]; 3 wk IR, epicatechin
  HR (heart rate): 302 ±18^ bpm
  LVEDP: 5.5 ± 1.5 mmHg
  LVPSP: 108 ± 4 mmHg
  MAP: 85 ± 4 mmHg
Sprague-Dawley rats [2]; [7]
  LVEDP (left ventricular end diastolic pressure): 4.9 ± 0.5 mmHg
  LVPSP (left ventricular peak systolic pressure): 110 ± 5 mmHg
  MAP (mean aortic pressure): 90 ± 5 mm Hg
Sprague-Dawley rats [2]; 48 h IR, 10 d epicatechin pretreatment, mean ± SEM
  HR (heart rate): 373 ± 17 bpm
Sprague-Dawley rats [2]; normal rats, 10 d epicatechin
  LVEDP (left ventricular end diastolic pressure): 6.7 ± 1.3 mmHg
  LVPSP (left ventricular peak systolic pressure): 112 ± 14 mmHg
  MAP (mean aortic pressure): 99 ± 10 mm Hg
Sprague-Dawley rats [2]; normal rats, 10 d epicatechin 1 mg/kg/day oral, mean ± SEM
  HR (heart rate): 346 ± 8 bpm
Sprague-Dawley rats [2]; sham, 3 wk study, epicatechin
  HR (heart rate): 328 ± 11 bpm
  LVEDP: 2.6 ± 0.2 mmHg
  LVPSP: 116 ± 6.2 mmHg
  MAP: 92 ± 11 mmHg
Sprague-Dawley rats [2]; ten days of treatment in noninfarcted animals
  blood pressure: did not reduce blood pressure
Sprague-Dawley rats [3]; 3 wk IR
  AW thickness: 0.41 ± 0.02 mm
  HW/BW (heart weight/body weight): 4.5 ± 0.2
  Inner LV diam.: 0.55 ± 0.05 mm
  Outer LV diam.: 1.6 ± 0.04 mm
  SW thickness: 0.49 ± 0.03 mm
Sprague-Dawley rats [3]; sham, 3 wk study
  AW thickness: 0.53 ± 0.05 mm
  HW/BW (heart weight/body weight): 3.2 ± 0.5
  Inner LV diam.: 0.52 ± 0.08 mm
  Outer LV diam.: 1.6 ± 0.1 mm
  SW thickness: 0.47 ± 0.04 mm
Sprague-Dawley rats [4]; 3 weeks after infarction (permanent occlusion), FIG. 9a
  reduction of infarct size: 33%
Sprague-Dawley rats [4]; 48 h after permanent coronary occlusion, FIG. 8
  reduction of infarct size: 50%
Sprague-Dawley rats [5]; PCO 3 week
  LVEDP: 11 ± 1 mmHg
  LVPSP: 102 ± 3 mmHg
  MAP: 82 ± 2 mmHg
  HR: 268 ± 10 bpm
Sprague-Dawley rats [5]; PCO 48 h
  LVEDP: 5.8 ± 1.2 mmHg
  LVPSP: 107 ± 4 mmHg
  MAP: 91 ± 5 mmHg
  HR: 342 ± 8 bpm
Sprague-Dawley rats [5]; sham, 3 weeks after thoracotomy
  HR: 303 ± 10 bpm
Sprague-Dawley rats [5]; sham, 3 weeks
  LVEDP: 6.4 ± 0.9 mmHg
  LVPSP: 118 ± 4 mmHg
  MAP: 92 ± 4 mmHg
Sprague-Dawley rats [5]; sham, 48 h
  LVEDP: 4.3 ± 1.2 mmHg
  LVPSP: 102 ± 2 mmHg
  MAP: 83 ± 2 mmHg
Sprague-Dawley rats [5]; sham, 48 h after thoracotomy
  HR: 334 ± 10 bpm
Sprague-Dawley rats [6]; PCO 3 week
  AW thickness: 0.446 ± 0.04 mm
  HW/BW: 4.4 ± 0.7
  Inner LV diam.: 0.546 ± 0.046 mm
  Outer LV diam.: 1.495 ± 0.031 mm
  SW thickness: 0.475 ± 0.02 mm
Sprague-Dawley rats [6]; PCO 48 h
  AW thickness: 0.57 ± 0.03 mm
  SW thickness: 0.57 ± 0.02 mm
Sprague-Dawley rats [6]; sham, 3 weeks
  AW thickness: 0.58 ± 0.05 mm
  HW/BW: 3.82 ± 0.3
  Inner LV diam.: 0.490 ± 0.046 mm
  Outer LV diam.: 1.469 ± 0.075 mm
  SW thickness: 0.38 ± 0.04 mm
Sprague-Dawley rats [6]; sham, 48 h
  AW thickness: 0.54 ± 0.05 mm
  SW thickness: 0.33 ± 0.06 mm
Sprague Dawley rats; at 48 h, IV 10 mg/kg
  reduction of IR induced infarct size: 36%

## catechin
Sprague Dawley rats; methods of Example 5, FIG. 16
  area at risk: no effect
  infarction size: no effect
